According to PubChem BioAssay (NCI):
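Growth conditions: 96-well plates. Treatment: test compound, 48 hours, 5 concentrations. Analysis: linear interpolation between bracketing concentrations; unreached endpoints set to highest concentration. GI50 marks 50% less growth. TGI denotes the concentration required for complete inhibition of growth.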

Columns and labels:
Experiment in all cases: inhibition of tumour cell growth, NCI panel, 48 h
SK-MEL-5 melanoma = system: SK-MEL-5 melanoma
OVCAR-4 ovarian = system: OVCAR-4 ovarian
NCI-H23 lung = system: NCI-H23 lung
SR leukemia = system: SR leukemia
NCI-H460 lung = system: NCI-H460 lung
UACC-257 melanoma = system: UACC-257 melanoma
UO-31 renal = system: UO-31 renal
COLO 205 colon = system: COLO 205 colon
HCC-2998 colon = system: HCC-2998 colon
SN12C renal = system: SN12C renal
HCT-116 colon = system: HCT-116 colon
HT29 colon = system: HT29 colon
OVCAR-5 ovarian = system: OVCAR-5 ovarian
SNB-75 CNS = system: SNB-75 CNS
SNB-19 CNS = system: SNB-19 CNS
TK-10 renal = system: TK-10 renal
SK-OV-3 ovarian = system: SK-OV-3 ovarian
OVCAR-3 ovarian = system: OVCAR-3 ovarian
BT-549 breast = system: BT-549 breast
OVCAR-8 ovarian = system: OVCAR-8 ovarian
U251 CNS = system: U251 CNS
HL-60(TB) leukemia = system: HL-60(TB) leukemia
IGROV1 ovarian = system: IGROV1 ovarian
LOX IMVI melanoma = system: LOX IMVI melanoma
KM12 colon = system: KM12 colon
EKVX NSCLC = system: EKVX NSCLC
MOLT-4 leukemia = system: MOLT-4 leukemia
SW-620 colon = system: SW-620 colon
A549 NSCLC = system: A549 NSCLC
ACHN renal = system: ACHN renal
MDA-MB-231 breast = system: MDA-MB-231 breast
HCT-15 colon = system: HCT-15 colon
786-0 renal = system: 786-0 renal
T-47D breast = system: T-47D breast
A498 renal = system: A498 renal
SK-MEL-2 melanoma = system: SK-MEL-2 melanoma
NCI/ADR-RES ovarian = system: NCI/ADR-RES ovarian
SF-295 CNS = system: SF-295 CNS
K-562 leukemia = system: K-562 leukemia
MDA-MB-435 = system: MDA-MB-435
MCF7 breast = system: MCF7 breast
NCI-H522 lung = system: NCI-H522 lung
HOP-62 NSCLC = system: HOP-62 NSCLC
UACC-62 melanoma = system: UACC-62 melanoma
MALME-3M melanoma = system: MALME-3M melanoma
M14 melanoma = system: M14 melanoma
SF-539 CNS = system: SF-539 CNS
RPMI-8226 leukemia = system: RPMI-8226 leukemia
PC-3 prostate = system: PC-3 prostate
DU-145 prostate = system: DU-145 prostate
RXF 393 renal = system: RXF 393 renal
CCRF-CEM leukemia = system: CCRF-CEM leukemia
CAKI-1 renal = system: CAKI-1 renal
SK-MEL-28 melanoma = system: SK-MEL-28 melanoma
HS 578T breast = system: HS 578T breast
HOP-92 NSCLC = system: HOP-92 NSCLC
SF-268 CNS = system: SF-268 CNS
NCI-H226 lung = system: NCI-H226 lung

Compound `COc1cc(OC)c2sc(-c3ccc(-n4cncc4-c4cc(OC)c(OC)c(OC)c4)cc3)nc2c1` has a GI50 (SK-MEL-5 melanoma) of 2.46 µM, a TGI (SK-MEL-5 melanoma) of over 100 µM and a GI50 (OVCAR-4 ovarian) of 3.25 µM. The TGI (OVCAR-4 ovarian) was over 100 µM, the GI50 (NCI-H23 lung) was 6.15 µM and the TGI (NCI-H23 lung) was over 100 µM. The GI50 (SR leukemia) was 3.24 µM, the TGI (SR leukemia) was over 100 µM and the GI50 (NCI-H460 lung) was 4.67 µM. It also gave a TGI (NCI-H460 lung) of over 100 µM, a GI50 (UACC-257 melanoma) of over 100 µM and a TGI (UACC-257 melanoma) of over 100 µM. The GI50 (UO-31 renal) was 2.27 µM, the TGI (UO-31 renal) was over 100 µM and the GI50 (COLO 205 colon) was 4.51 µM. It also gave a TGI (COLO 205 colon) of over 100 µM, a GI50 (HCC-2998 colon) of over 100 µM and a TGI (HCC-2998 colon) of over 100 µM. It also gave a GI50 (SN12C renal) of over 100 µM, a TGI (SN12C renal) of over 100 µM and a GI50 (HCT-116 colon) of 3.92 µM. For the same compound, the TGI (HCT-116 colon) was over 100 µM, the GI50 (HT29 colon) was 4.88 µM and the TGI (HT29 colon) was over 100 µM. The GI50 (OVCAR-5 ovarian) was over 100 µM, the TGI (OVCAR-5 ovarian) was over 100 µM and the GI50 (SNB-75 CNS) was 6.47 µM. The TGI (SNB-75 CNS) was over 100 µM, the GI50 (SNB-19 CNS) was over 100 µM and the TGI (SNB-19 CNS) was over 100 µM. For the same compound, the GI50 (TK-10 renal) was 9.4 µM, the TGI (TK-10 renal) was over 100 µM and the GI50 (SK-OV-3 ovarian) was over 100 µM. For the same compound, the TGI (SK-OV-3 ovarian) was over 100 µM, the GI50 (OVCAR-3 ovarian) was 3.26 µM and the TGI (OVCAR-3 ovarian) was over 100 µM. The GI50 (BT-549 breast) was 5.23 µM, the TGI (BT-549 breast) was over 100 µM and the GI50 (OVCAR-8 ovarian) was over 100 µM. It also gave a TGI (OVCAR-8 ovarian) of over 100 µM, a GI50 (U251 CNS) of 4.15 µM and a TGI (U251 CNS) of over 100 µM. The GI50 (HL-60(TB) leukemia) was 3.3 µM, the TGI (HL-60(TB) leukemia) was over 100 µM and the GI50 (IGROV1 ovarian) was 5.87 µM. For the same compound, the TGI (IGROV1 ovarian) was over 100 µM, the GI50 (LOX IMVI melanoma) was 5.4 µM and the TGI (LOX IMVI melanoma) was over 100 µM. For the same compound, the GI50 (KM12 colon) was 4.62 µM, the TGI (KM12 colon) was over 100 µM and the GI50 (EKVX NSCLC) was 5.09 µM. The TGI (EKVX NSCLC) was over 100 µM, the GI50 (MOLT-4 leukemia) was 4.24 µM and the TGI (MOLT-4 leukemia) was over 100 µM. It also gave a GI50 (SW-620 colon) of 5.96 µM, a TGI (SW-620 colon) of over 100 µM and a GI50 (A549 NSCLC) of 6.16 µM. The TGI (A549 NSCLC) was over 100 µM, the GI50 (ACHN renal) was 6.67 µM and the TGI (ACHN renal) was over 100 µM. The GI50 (MDA-MB-231 breast) was 3.51 µM, the TGI (MDA-MB-231 breast) was over 100 µM and the GI50 (HCT-15 colon) was 5.48 µM. For the same compound, the TGI (HCT-15 colon) was over 100 µM, the GI50 (786-0 renal) was 7.38 µM and the TGI (786-0 renal) was over 100 µM. For the same compound, the GI50 (T-47D breast) was 3.35 µM, the TGI (T-47D breast) was over 100 µM and the GI50 (A498 renal) was 1.83 µM. It also gave a TGI (A498 renal) of over 100 µM, a GI50 (SK-MEL-2 melanoma) of 6.09 µM and a TGI (SK-MEL-2 melanoma) of over 100 µM. The GI50 (NCI/ADR-RES ovarian) was 5.65 µM, the TGI (NCI/ADR-RES ovarian) was over 100 µM and the GI50 (SF-295 CNS) was 4.42 µM. It also gave a TGI (SF-295 CNS) of over 100 µM, a GI50 (K-562 leukemia) of 3.83 µM and a TGI (K-562 leukemia) of over 100 µM. The GI50 (MDA-MB-435) was 3.41 µM, the TGI (MDA-MB-435) was over 100 µM and the GI50 (MCF7 breast) was 3.88 µM. It also gave a TGI (MCF7 breast) of over 100 µM, a GI50 (NCI-H522 lung) of 3.27 µM and a TGI (NCI-H522 lung) of over 100 µM. For the same compound, the GI50 (HOP-62 NSCLC) was 75.9 µM, the TGI (HOP-62 NSCLC) was over 100 µM and the GI50 (UACC-62 melanoma) was 4.14 µM. It also gave a TGI (UACC-62 melanoma) of over 100 µM, a GI50 (MALME-3M melanoma) of 3.73 µM and a TGI (MALME-3M melanoma) of over 100 µM. For the same compound, the GI50 (M14 melanoma) was 7.91 µM, the TGI (M14 melanoma) was over 100 µM and the GI50 (SF-539 CNS) was 8.59 µM. For the same compound, the TGI (SF-539 CNS) was over 100 µM, the GI50 (RPMI-8226 leukemia) was 5.39 µM and the TGI (RPMI-8226 leukemia) was over 100 µM. It also gave a GI50 (PC-3 prostate) of 2.54 µM, a TGI (PC-3 prostate) of over 100 µM and a GI50 (DU-145 prostate) of over 100 µM. The TGI (DU-145 prostate) was over 100 µM, the GI50 (RXF 393 renal) was 2.8 µM and the TGI (RXF 393 renal) was over 100 µM. It also gave a GI50 (CCRF-CEM leukemia) of 3.95 µM and a TGI (CCRF-CEM leukemia) of over 100 µM.

`Cc1cn2c(/C=N/N=C(N)N)c(-c3ccc(Cl)c([N+](=O)[O-])c3)nc2s1` gave a TGI (UACC-257 melanoma) of over 100 µM, a TGI (CAKI-1 renal) of over 100 µM and a TGI (SK-MEL-28 melanoma) of 3.05 µM. It also gave a TGI (UO-31 renal) of 3.4 µM, a TGI (COLO 205 colon) of 1.88 µM and a TGI (HT29 colon) of 2.72 µM. It also gave a TGI (OVCAR-5 ovarian) of 2.41 µM, a TGI (SNB-75 CNS) of 2.37 µM and a TGI (SK-OV-3 ovarian) of 3.15 µM. The TGI (OVCAR-8 ovarian) was over 100 µM, the TGI (EKVX NSCLC) was 2.1 µM and the TGI (SW-620 colon) was over 100 µM. The TGI (SK-MEL-2 melanoma) was 1.6 µM, the TGI (NCI/ADR-RES ovarian) was over 100 µM and the TGI (HS 578T breast) was over 100 µM. For the same compound, the TGI (SF-539 CNS) was 3.11 µM.

`COc1ccc(-c2cc(-c3ccc(Nc4ccnc5cc(Cl)ccc45)cc3)nc(N3CCOCC3)n2)cc1` was tested, and the GI50 (OVCAR-4 ovarian) was 1.83 µM, the TGI (OVCAR-4 ovarian) was 3.57 µM and the GI50 (NCI-H23 lung) was 4.99 µM. It also gave a TGI (NCI-H23 lung) of over 100 µM, a GI50 (UO-31 renal) of over 100 µM and a TGI (UO-31 renal) of over 100 µM. It also gave a GI50 (COLO 205 colon) of 3.14 µM, a TGI (COLO 205 colon) of over 100 µM and a GI50 (HCC-2998 colon) of over 100 µM. For the same compound, the TGI (HCC-2998 colon) was over 100 µM, the GI50 (HOP-92 NSCLC) was 4.83 µM and the TGI (HOP-92 NSCLC) was 49.4 µM. It also gave a GI50 (HCT-116 colon) of 2.96 µM, a TGI (HCT-116 colon) of over 100 µM and a GI50 (HT29 colon) of 3.28 µM. It also gave a TGI (HT29 colon) of over 100 µM, a GI50 (OVCAR-5 ovarian) of over 100 µM and a TGI (OVCAR-5 ovarian) of over 100 µM. It also gave a GI50 (SNB-75 CNS) of 1.52 µM, a TGI (SNB-75 CNS) of 5.32 µM and a GI50 (SNB-19 CNS) of 3.86 µM. It also gave a TGI (SNB-19 CNS) of over 100 µM, a GI50 (SK-OV-3 ovarian) of 34.8 µM and a TGI (SK-OV-3 ovarian) of over 100 µM. It also gave a GI50 (BT-549 breast) of 2.73 µM, a TGI (BT-549 breast) of over 100 µM and a GI50 (OVCAR-8 ovarian) of 4.43 µM. For the same compound, the TGI (OVCAR-8 ovarian) was over 100 µM, the GI50 (SF-268 CNS) was 6.23 µM and the TGI (SF-268 CNS) was over 100 µM. It also gave a GI50 (HL-60(TB) leukemia) of 4.8 µM, a TGI (HL-60(TB) leukemia) of over 100 µM and a GI50 (EKVX NSCLC) of over 100 µM. For the same compound, the TGI (EKVX NSCLC) was over 100 µM, the GI50 (MDA-MB-231 breast) was 7.52 µM and the TGI (MDA-MB-231 breast) was over 100 µM. For the same compound, the GI50 (786-0 renal) was 2.26 µM, the TGI (786-0 renal) was 5.72 µM and the GI50 (A498 renal) was 27.5 µM. The TGI (A498 renal) was 86.7 µM, the GI50 (SK-MEL-2 melanoma) was 11.7 µM and the TGI (SK-MEL-2 melanoma) was 61.5 µM. The GI50 (NCI/ADR-RES ovarian) was 3.01 µM, the TGI (NCI/ADR-RES ovarian) was over 100 µM and the GI50 (K-562 leukemia) was 6.18 µM. For the same compound, the TGI (K-562 leukemia) was over 100 µM, the GI50 (MDA-MB-435) was 2.92 µM and the TGI (MDA-MB-435) was over 100 µM. It also gave a GI50 (M14 melanoma) of 2.81 µM, a TGI (M14 melanoma) of over 100 µM and a GI50 (RPMI-8226 leukemia) of 3.79 µM. It also gave a TGI (RPMI-8226 leukemia) of over 100 µM, a GI50 (RXF 393 renal) of 2.21 µM and a TGI (RXF 393 renal) of 5.35 µM. The GI50 (NCI-H226 lung) was over 100 µM and the TGI (NCI-H226 lung) was over 100 µM.
